Assay results taken from patent US10538443B2, “Method of degradation and inactivation of antibiotics in water by immobilized enzymes onto functionalized supports” (Luxembourg Institute of Science and Technology (LIST), priority 2014, dated 2020).
Positions of bridges follow the written chain, without caps; N, C: chain ends. Non-standard residues stand in square brackets, D forms with d. Residues, ends and D or L forms follow the SMILES beside them. *: point of attachment. Ileψ(thiazoline)Cys = CC[C@H](C)[C@H](N)C1=N[C@H](C(=O)*)CS1; dOrn = NCCC[C@@H](N)C(=O)O

How the values were obtained:
[1] = system: Selenastrum capricornutum; assay: Acute toxicity test on microalgae (ISO 8692: 2012), growth inhibition; format: cell-based; details: 90 μg·mL^−1
Procedure: (§1) For this, the tests were carried out on the degradation media before (T0) and after metabolization by enzymes immobilized on PGMA and DOPA functionalized Kaldnes after 30 min, 1 h and 24 h of contact.
(§2) The tests are performed with the maximum volume of test solution that can be provided and defined by the standards cited earlier. The results are expressed as a percentage of growth inhibition for algae and Daphnia test, as percentage of light emission inhibition for the Microtox test and as percentage of cell viability inhibition for cytotoxicity tests.

NDM-1 = molecular target: T1, NDM-1 (Klebsiella pneumoniae, UniProt C7C422); format: biochemical, K. pneumoniae; details: free NDM-1 300 μg·ml^−1, antibiotic 100 μg·ml^−1, final volume 1 mL, deionized water, HEPES 12.5 mM, room temperature, 100 rpm
T1 construct: His tag (inferred from the HisTrap FF purification and the pOPINF vector; no tag is printed as such); made in house; host or cells: Escherichia coli BL21 2D3
Procedure: The production of protein performed as described by Green V. L. et al. (Acta Crystallogr. 2011, F67, 1160-1164) with few modifications: An additional step of freezing is added before cell lysis with French press. The NDM-1 isolation and purification are only performed with HisTrap FF column (GE Healthcare). Three washes in Amicon® Ultra-4 Centrifugal Filter Units 3,000 NMWL (1000×g for 15 min) allow to remove excess imidazole. Enzymes are then re-suspended in PBS.
(§3) Degradation experiments have been performed, using a concentration of free NDM-1 enzyme of 300 μg·ml^−1 in an aqueous medium comprising deionized water and HEPES 12.5 mM. Antibiotic is added at final concentration of 100 μg·ml^−1 (final volume: 1 mL). Degradation assay are performed under agitation of 100 rpm at room temperature during 1 hour. UV absorbance measurements are achieved to determine the evolution of the concentration of the antibiotics in the medium.

[2] = Autolysis of antibiotic after 1 hour; format: physicochemical; details: antibiotic 100 μg·ml^−1, deionized water, HEPES 12.5 mM, room temperature
Procedure: as §3

Vibrio fischeri = details: 0 min, 80 μg·mL^−1
Procedure: as §1, §2

[3] = system: rat hepatoma cell line H4IIE.Luc; assay: Cytotoxicity test, Cell Viability Assay AlamarBlue; format: cell-based; details: amoxicillin 80 μg·mL^−1; T0 (before metabolization by enzymes)
Procedure: as §1, §2

Daphnia magna Straus = assay: Daphnia acute toxicity test (ISO 6341: 2012); format: in vivo; details: amoxicillin 90 μg·mL^−1; T0 (before metabolization by enzymes)
Procedure: as §1, §2

[4] = Degradation of amoxicillin (100 μg/ml) in filtered tap water with HEPES by immobilized or free enzyme, UV absorbance every 24 hours; format: biochemical
Procedure: Once the Kaldnes carriers have been activated according to the above protocol, the enzymatic activity is measured. Two antibiotics present in an aqueous medium have been tested.
A sample of tap water, prealably filtered on a syringe filter unit (disposable pore size of 0.22 μm) and with HEPES (12.5 mM), and the antibiotics at a concentration of 100 μg/ml.
For comparison purposes, degradation of the antibiotic with the free enzyme will be tested. The sample of tap water, prealably filtered on a syringe filter unit (disposable pore size of 0.22 μm) and with HEPES (12.5 mM), and the antibiotics at a concentration of 100 μg·ml^−1, is prepared.
UV absorbance measurements are achieved to determine the evolution of the concentration of the antibiotics. […] The absorbance, and the thus the concentration, is determined every 24 hours.

[5] = Storage of the Kaldnes carriers at 4° C., length of preservation of activity; format: physicochemical
Procedure: The biofunctionalized Kaldnes carriers, after being dried, have been kept in the fridge at 4° C. Antibiotics degradation tests were performed onto the carriers to measure the activity.

[6] = Kaldnes biochips, PGMA based layer, Tween 20 (5%), enzyme 1.985 mg
[7] = Kaldnes biochips, dopamine as layer precursor, no Tween 20, enzyme 1.985 mg
[8] = enzyme in its free form 2 mg, no Tween 20

Molecule: CC1(C)S[C@@H]2[C@H](NC(=O)[C@H](N)c3ccc(O)cc3)C(=O)N2[C@H]1C(=O)O [amoxicillin]
- Percentage of inhibition, Alga test ([1]; 0 min): 55 ± 6%
- Percentage of inhibition, Alga test ([1]; 24 h): 0%
- degraded amount after 1 hour (NDM-1): 10 ± 2 µg
- Autolysis of antibiotic after 1 hour [2]: 0 µg/mL
- Percentage of inhibition, Microtox (Vibrio fischeri): 41 ± 12%
- Percentage of inhibition, Cell Viability Assay [3]: 19 ± 5%
- Percentage of inhibition, Daphnia Test (Daphnia magna Straus): 56 ± 4%

Molecule: CC[C@H](C)[C@H](N)C1=N[C@H](C(=O)N[C@@H](CC(C)C)C(=O)N[C@H](CCC(=O)O)C(=O)N[C@H](C(=O)N[C@H]2CCCCNC(=O)[C@H](CC(N)=O)NC(=O)[C@@H](CC(=O)O)NC(=O)[C@H](Cc3cnc[nH]3)NC(=O)[C@@H](Cc3ccccc3)NC(=O)[C@H]([C@@H](C)CC)NC(=O)[C@@H](CCCN)NC2=O)[C@@H](C)CC)CS1 [bacitracin] ({Ileψ(thiazoline)Cys}-L[dE]IK[dOrn]I[dF]H[dD]N; lactam 4-C)
- degraded amount after 1 hour (NDM-1): 5 ± 0.8 µg
- Autolysis of antibiotic after 1 hour [2]: 0 µg/mL

Molecule: CC[C@H]1OC(=O)[C@H](C)[C@@H](O[C@H]2C[C@@](C)(OC)[C@@H](O)[C@H](C)O2)[C@H](C)[C@@H](O[C@@H]2O[C@H](C)C[C@H](N(C)C)[C@H]2O)[C@](C)(O)C[C@@H](C)C(=O)[C@H](C)[C@@H](O)[C@]1(C)O [erythromycin]
- degraded amount after 1 hour (NDM-1): 6.8 ± 2.3 µg
- Autolysis of antibiotic after 1 hour [2]: 0 µg/mL

Molecule: CCC[C@@H]1C[C@@H](C(=O)N[C@@H]([C@H]2O[C@H](SC)[C@H](O)[C@@H](O)[C@H]2O)[C@@H](C)O)N(C)C1 [lincomycin]
- degraded amount after 1 hour (NDM-1): 5 ± 1.5 µg
- Autolysis of antibiotic after 1 hour [2]: 0.01 µg/mL

Molecule: Cc1cc(NS(=O)(=O)c2ccc(N)cc2)no1 [sulfamethoxazole]
- degraded amount after 1 hour (NDM-1): 3.2 ± 0.8 µg
- Autolysis of antibiotic after 1 hour [2]: 0 µg/mL

Molecule: COc1cc(Cc2cnc(N)nc2N)cc(OC)c1OC [trimethoprime]
- degraded amount after 1 hour (NDM-1): 2.5 ± 0.95 µg
- Autolysis of antibiotic after 1 hour [2]: 0.01 µg/mL

Molecule: CC[C@H]1OC(=O)C[C@@H](O)[C@H](C)[C@@H](O[C@@H]2O[C@H](C)[C@@H](O[C@H]3C[C@@](C)(O)[C@@H](O)[C@H](C)O3)[C@H](N(C)C)[C@H]2O)[C@@H](CC=O)C[C@@H](C)C(=O)/C=C/C(C)=C/[C@@H]1CO[C@@H]1O[C@H](C)[C@@H](O)[C@@H](OC)[C@H]1OC [tylosine]
- degraded amount after 1 hour (NDM-1): 7.4 ± 1.1 µg
- Autolysis of antibiotic after 1 hour [2]: 0.01 µg/mL

B1: NDM-1: New-Dehli metallo-β-lactamase 1, K. pneumoniae gene produced in E. coli BL21 2D3, used free or immobilized on Kaldnes biochips (protein, UniProt C7C422 29-270, looked up)
Metallo-beta-lactamase type 2: GEIRPTIGQQMETGDQRFGDLVFRQLAPNVWQHTSYLDMPGFGAVASNGLIVRDGGRVLVVDTAWTDDQTAQILNWIKQEINLPVALAVVTHAHQDKMGGMDALHAAGIATYANALSNQLAPQEGMVAAQHSLTFAANGWVEPATAPNFGPLKVFYPGPGHTSDNITVGIDGTDIAFGGCLIKDSKAKSLGNLGDADTEHYAASARAFGAAFPKASMIVMSHSAPDSRAAITHTARMADKLR
- Amount of degraded amoxicillin [4, 6]: 3502 ± 191 µg
- Duration of activity [4, 6]: 22 days
- Amount of degraded amoxicillin [4, 7]: 3021 ± 51 µg
- Duration of activity [4, 7]: 10 days
- amount of amoxicillin degraded, immobilized versus free form ([4]; Kaldnes carrier, Table V): about 8 times
- Amount of degraded amoxicillin [4, 8]: 390 ± 45 µg
- Duration of activity [4, 8]: 4 days
- Length of preservation ([5]; stored as Kaldnes + PGMA): 1 month
- Length of preservation ([5]; stored as Kaldnes + PGMA + enzyme): 2 months
- Length of preservation ([5]; stored as Kaldnes + PGMA + enzyme + Tween 20): 2 weeks
- Length of preservation ([5]; stored as Kaldnes + dopamine): 3 weeks
- Length of preservation ([5]; stored as Kaldnes + dopamine + enzyme): 1 month
- Length of preservation ([5]; stored as Kaldnes + dopamine + enzyme + Tween 20): 2 weeks
